From patent US20150140088A1, “SPIROSTEROID SYSTEMS ACTING AS NEUROPROTECTIVE AND ANTI-INFLAMMATORY AGENTS” (priority 2011, published 2015)

System: PC12 cells exposed to L-glutamate
Assay: Anti-glutamatergic effect on PC12 cells exposed to L-glutamate (MTT cellular vitality)
Type: cell-based
Conditions: 10 μM; PC12 cells exposed to L-glutamate (20 mM) for 24 h; result in words
Description: PC12 constitute a neuron-like cell line widely employed in several models of neurological diseases. The patophysiological mechanisms which can be simulated in those in vitro models, allows the use of PC12 cells in evaluation of therapeutic candidates.
The synthetic spirosteroids series (10 μM of each molecule) was evaluated on PC12 cells exposed to L-glutamate (20 mM) for 24 h. Previously, those cells were routinely cultivated in RPMI 1640 medium, supplemented with equine serum (10%) and fetal bovine serum (5%) in a 37° C. and 5% CO2 atmosphere. In the beginning of the experiment, cells were seeded in 96-well microplates at a cellular density of 150,000 cells/mL. After 24 h of exposition to glutamatergic damage and spirosteroids treatment, cellular vitality was determined with 3-(4,5-dimethylthiazol-2-yl)-2,5-diphenyltetrazolium bromide (MTT), which is metabolized by mitochondrial deshydrogenases in living cells. […] All molecules of the synthetic spirosteroids series were non cytotoxic at the concentration employed for the in vitro anti-glutamatergic assay (data no shown).

C[C@@H]1CC[C@@]2(OC1)O[C@H]1C[C@H]3[C@@H]4CC(=O)C5C[C@H](O)[C@H](O)C[C@]5(C)[C@H]4CC[C@]3(C)[C@H]1[C@@H]2C (stereo partly drawn) [2α,3α-dyhydroxy-(25R)-spirostan-6-one]
anti-glutamatergic and neuroprotector effect: most active

C[C@@H]1CC[C@@]2(OC1)O[C@H]1C[C@H]3[C@@H]4CC(=O)C5CC(=O)CC[C@]5(C)[C@H]4CC[C@]3(C)[C@H]1[C@@H]2C (stereo partly drawn) [3,6-dione-(25R)-spirostan]
anti-glutamatergic and neuroprotector effect: most active
